Turning to `CCC(=O)Oc1cccc(NC(=O)CBr)c1`, the melting point lay within 85 to 88 °C.

`C=CC(=O)OCCSc1ccc2sc3ccccc3c(=O)c2c1` came in with a melting point of 68 to 71 °C.

Molecule `CCCC(=O)c1cnc2c(CO)cccc2c1Nc1ccccc1C` displayed a melting point of 148 to 150 °C.

`C[Si](C)(C)C#Cc1cnn2c(C(F)(F)F)cc(-c3ccc(Cl)cc3)nc12` came in with a melting point of 198 °C.

For `O=C(O)c1cccnc1NCc1ccccc1`, the melting point came to 148 °C.

In turn, `O=[N+]([O-])c1cccc2ccc3c(c12)C(CCl)CN3` (stereo unspecified) gave a melting point of 100 °C.

`CC(Oc1ccc2nc(NC(=O)NCCN3CCOCC3)sc2c1)c1c(Cl)ccc(F)c1Cl` (stereo unspecified) displayed a melting point of 110 °C.

Regarding `c1ccc(CN2CCN(Cc3ccccc3)[C@@H](CCc3cccnc3)C2)cc1`, the melting point was 94 to 95.5 °C.

In the case of `COC(=O)C1=C(C)Nc2ccccc2N(C(C)=O)C1c1cccc([N+](=O)[O-])c1` (stereo unspecified), the melting point was 231 to 232 °C.

`COC[C@H](O)CNc1ccc2cc(OCc3ccccc3)ccc2c1`: the melting point lay within 105 to 106 °C.

`O=S(c1ccccc1-c1ccccc1)C(F)(F)C(F)(F)C(F)(F)C(F)(F)C(F)(F)C(F)(F)C(F)(F)C(F)(F)F` (stereo unspecified): the melting point lay in the range of 62 to 63 °C.

Molecule `COc1cc(OC)c2cc(-c3ccc(C#N)cc3)oc2c1` registered a melting point of 220 to 221 °C.

As for `Cc1ccc2c(c1C#N)c(Sc1ccc(Cl)cc1)c(C)n2CC(=O)O`, the melting point lay in the range of 237 to 238 °C.

Regarding `CCCCOc1cc(CCC(=O)O)n(Cc2ccc(C(F)(F)F)cc2Cl)n1`, the melting point was 125 to 126 °C.

Molecule `NC(=O)c1c(Cl)c(-c2ccccc2)n2c1CN(C(=O)Oc1ccccc1)CC2` showed a melting point of 196 to 198 °C.

`COc1ccc2c(=O)c(OS(C)(=O)=O)cn(C)c2c1`: the melting point amounted to 163 °C.

`CCCCC1=NC2(CCCC2)C(=O)N1Cc1ccc(-c2ccccc2S(=O)(=O)Nc2onc(C)c2C)c(CN2CCC(C)(C)C2=O)c1` registered a melting point of 104 to 110 °C.

In turn, `C/C=C/c1ccc2c(NCc3ccc(NC(=O)C4CCN(Cc5ccccc5)CC4)cc3)nc(N(C)C)nc2c1` came in with a melting point of 154 °C.

`CC(=O)NCc1ccc(CN2CCN(c3ccc(Cl)cc3)CC2)cc1` yielded a melting point of 180 to 182 °C.

The molecule `COc1ccc(C(=O)N2CCc3cc(O)ccc3C2)cc1OC` showed a melting point of 58 to 77 °C.

In the case of `O=c1c2ccccc2sn1CCN1CC=C(c2ccccc2)CC1`, the melting point fell in the range of 90 to 92 °C.

`C=CCOC(=O)C(CCn1c(=O)c2c(ncn2C)n(C)c1=O)N(C)S(=O)(=O)c1ccc(Oc2ccccc2)cc1` (stereo unspecified) yielded a melting point of 207 to 209 °C.

Molecule `O=[N+]([O-])c1ccc(NCc2ccccc2)c(F)c1` had a melting point of 97.5 to 99 °C.

Molecule `Clc1cccc(/C=C/C2=CCN(Cc3c[nH]c4ncccc34)CC2)c1` had a melting point of 208 to 210 °C.

The molecule `CCS(=O)(=O)C(F)(F)C(O)(Cn1cncn1)c1ccc(F)cc1` (stereo unspecified) returned a melting point of 131 to 132 °C.

The molecule `CC1CC(=O)N(c2cc(C(C)(C)C)c(O)c(C(C)(C)C)c2)C1` (stereo unspecified) displayed a melting point of 157 to 159 °C.

The molecule `CC(=O)OC(c1cccc(Cl)c1Cl)C(Cl)(Cl)C(F)(F)F` (stereo unspecified) returned a melting point of 92 to 95 °C.

Turning to `CCCc1nc2c(N)nc3c(c2n1CCCCC(=O)N1CCOCC1)CCCC3`, the melting point fell in the range of 158 to 160 °C.

`CCCCOC(=O)OCN1C(=O)CN(CCN2CC(=O)N(COC(=O)OCCCC)C(=O)C2)CC1=O` gave a melting point of 68 to 71 °C.

`CC(=O)OCC1OC(c2cnc(Cl)nc2Cl)C(OC(C)=O)C1OC(C)=O` (stereo unspecified) gave a melting point of 75 to 78 °C.

In turn, `C/C=C/Cn1c(Cc2cc(C)cc(C)c2)c(CC)c(=O)[nH]c1=O` yielded a melting point of 145 to 146 °C.

In turn, `C=CC(=O)c1ccc(O)cc1` gave a melting point of 99 to 103 °C.

Turning to `Cc1ccccc1CCC(=O)N(C)C(C)C(O)c1ccccc1` (stereo unspecified), the melting point was 136 to 137 °C.

`O=C(C(Cl)Cl)N1CCC2(CC1)OCCO2` registered a melting point of 102 °C.

On to `NC(=O)N1C(=O)C(=C(OCCc2ccccc2)c2cccs2)c2cc(F)c(Cl)cc21`, for which the melting point was 202 to 203 °C.

In turn, `COC(=O)c1cnc2c3cc(NC(=O)C4CCCCC4)ccc3ncn2c1=O` showed a melting point of 250 to 251 °C.

Molecule `Clc1cc(NC23CC4CC(CC(C4)C2)C3)nc(NC23CC4CC(CC(C4)C2)C3)n1` returned a melting point of 232 to 236 °C.

For `CC(N1C(=O)C(=O)N(c2ccc(Cl)cc2)C1=S)C(C)(C)C` (stereo unspecified), the melting point was in the range of 199 to 200 °C.

`COc1ccc2c(c1)[C@@H](Oc1ccc3c(c1)CCC(=O)N3)[C@H](N1CCC[C@@H](N)C1)C2` yielded a melting point of 146 °C.

For the molecule `COc1c(N2CCC(C(O)CO)CC2)c(F)cc2c(=O)c(C(=O)O)cn(C3CC3)c12` (stereo unspecified), the melting point was in the range of 200 to 204 °C.

Molecule `CCOC(=O)c1c(O)c2cc(F)ccc2c(=O)n1CC(C)(C)C` registered a melting point of 115 to 116 °C.

As for `CCc1c(C(F)(F)F)nn(-c2ccc(S(N)(=O)=O)nc2)c1-c1ccc(-c2cscn2)c(F)c1`, the melting point lay in the range of 182 to 185 °C.

Molecule `Clc1ccc2c(c1)C(c1ccccc1)Nc1nccn1-2` (stereo unspecified) came in with a melting point of 239 to 241 °C.

With `CS(=O)(=O)c1ccc(-n2cc(CO)nc2-c2ccc(Cl)cc2)cc1`, the melting point is 205 to 208 °C.

`Cc1cccc(S(=O)(=O)Nc2cccnc2Nc2ccccc2)c1` returned a melting point of 161 to 162 °C.

The molecule `COC(=O)c1scc(-c2ccccc2OC)c1-n1cccc1` showed a melting point of 148 °C.

The molecule `CCCCc1nc2ncccc2[nH]1` had a melting point of 80 °C.

Consider `Nc1ccc(-c2nc3ccc(F)cc3s2)cc1`, for which the melting point fell in the range of 152 to 155 °C.

Regarding `Clc1ccc(-c2ccc(N3CCCN(c4ccc(-c5ccc(Cl)cc5)cn4)CC3)nc2)cc1`, the melting point lay within 245 to 247 °C.

`O=C1N=C(c2ccccc2OCC(F)(F)F)N=C2N=CN=C12`: the melting point was 261 to 263 °C.

In turn, `COc1ccc(C(=O)CC2CCCC2)c(Cl)c1Cl` had a melting point of 60 to 61.5 °C.

As for `O=C(O)C1(O)CCc2ccccc2C1` (single isomer, unassigned; (-)), the melting point lay in the range of 134 to 135 °C.

Take `O=C(c1ccc(-c2ncc[nH]2)cc1)N1CCN(S(=O)(=O)c2ccc3cc(Cl)ccc3c2)CC1`: the melting point was in the range of 159 to 161 °C.

`COC(=O)c1cccc(C(=O)Nc2cccc3cc(Br)cnc23)c1`: the melting point came out at 157 °C.

`C/C(=N\O)C(=O)c1ccc(F)cc1F` returned a melting point of 99 to 101 °C.

Turning to `COc1c(C=C[N+](=O)[O-])cc2c(c1OC)CCC2`, the melting point was 104 °C.

`COC(=O)c1c(Cc2ccc(C(=O)CO)cc2)c(=O)c2ccc(C)nc2n1-c1ccccc1` showed a melting point of 190 to 193 °C.

In turn, `OCC1OC(n2cnc3c(NC4Cc5ccccc5C4)ncnc32)C(O)C1O` (stereo unspecified) displayed a melting point of 166 to 168 °C.

For the molecule `CCOC(=O)CCC(NC(=O)c1ccc(NC2CCc3cc4nc(C)n(COC(=O)C(C)(C)C)c(=O)c4cc32)cc1)C(=O)OCC` (mixture of isomers), the melting point was determined as 156 °C.

For `CCCc1c(OCCCOc2ccccc2C(=O)O)ccc(C(C)=O)c1O`, the melting point was 105 to 108 °C.

For `Cc1ccc(S(=O)(=O)Nc2c(CCCCCCC(=O)O)ccc3ccccc23)cc1`, the melting point is 128 to 133 °C.

On to `COc1ccc(S(=O)(=O)N2c3ccccc3CC2C(=O)NO)cc1` (stereo unspecified), for which the melting point stood at 142 °C.

`Cc1nc(N2CCN(c3ccccc3)C2=O)sc1C(=O)O` had a melting point of 286 to 289 °C.

The molecule `CSc1nc(OC(F)F)cc(OC(F)F)n1` gave a melting point of 46 to 48 °C.

In the case of `Cc1cc(C)cc(CC(C)(C)NCC(O)c2cc(OCc3ccccc3)cc3c2OCC(=O)N3)c1` (stereo unspecified), the melting point is 220 to 222 °C.

Molecule `CCc1nc(C(=O)NCC(C=C(C)C(CC)[N+](=O)[O-])=NO)c[nH]1` (stereo unspecified) showed a melting point of 75 to 79 °C.

For `CC(=O)NC1Cc2ccc(CCN3CCN(c4nsc5ccccc45)CC3)cc2C1(C)C` (stereo unspecified), the melting point lay within 62 to 72 °C.

On to `CC1(CNC(=O)OCc2ccc(Cl)cc2)Cn2cc([N+](=O)[O-])nc2O1` (stereo unspecified), for which the melting point fell in the range of 221 to 222 °C.

`CCOC(=O)C1=C(C)Nc2nc(N3CCOCC3)nc(N3CCOCC3)c2C1c1cccc2nonc12` (stereo unspecified) showed a melting point of 234 °C.

In turn, `CNC(=O)c1cc(Br)cc(C)c1N` gave a melting point of 133 to 135 °C.

The molecule `CC(=O)NCC1CC1c1c(C2CC2)ccc2nn(C)cc12` (stereo unspecified) had a melting point of 102 to 103 °C.

Turning to `CCc1cn2c(=O)c(C#N)cnc2c2ccccc12`, the melting point was in the range of 208 to 211 °C.

The molecule `CN(c1cccc(C(F)(F)F)c1)c1cc(Oc2cccc(C(F)(F)F)c2)ncn1` showed a melting point of 118 to 119 °C.

In turn, `CSCC12CCC(=CF)C=C1CCC1C3CCC(=O)C3(C)CCC12` (stereo unspecified) came in with a melting point of 146 to 147 °C.

Regarding `Cc1ccc(C(c2ccc(C)cc2)C2CN(Cc3ccc(O)cc3)CCC2=O)cc1` (stereo unspecified), the melting point fell in the range of 156 to 157 °C.

In turn, `COCc1c(C(O)c2ccccc2)ncc2[nH]c3ccc(OCc4ccccc4)cc3c12` (stereo unspecified) gave a melting point of 190 to 191 °C.

In turn, `CCOC(=O)C(C)c1ccc2c(c1)sc1nc(=O)cc(-c3ccccc3)n12` (stereo unspecified) returned a melting point of 127 to 131 °C.

The molecule `CC=Cc1cn(C2CC(O)C(CO)O2)c(=O)[nH]c1=O` (stereo unspecified) registered a melting point of 178 °C.

For the molecule `CCN1CCCN(c2cc(Cl)ccc2C)C1=S`, the melting point was 111 to 112 °C.

With `CCCCCSC1=C(SCCCCC)SC(=C2SC3=C(CN(S(=O)(=O)c4ccc(C)cc4)C3)S2)S1`, the melting point fell in the range of 136 to 137 °C.

Molecule `C=CCc1c(OCC(O)CN2CCN(Cc3ccc(Cl)cc3)CC2)ccc2c(OCc3ccccc3)cc(=O)oc12` (stereo unspecified) displayed a melting point of 155 to 157 °C.

In the case of `c1cc2c3c(cccc3c1)NCN2`, the melting point is 89 to 93 °C.

Regarding `O=C(Nc1ccc(C(F)(F)F)cc1)C1=NN(c2ccc(Cl)nn2)C(c2ccc(F)cc2)C1` (stereo unspecified), the melting point was 200 to 202 °C.

For `CCNc1nc(C(C)C)nc(Cl)c1[N+](=O)[O-]`, the melting point amounted to 50 °C.

`O=C1C=C(NC(=O)C(=O)c2cn(Cc3cc(C(F)(F)F)cc(C(F)(F)F)c3)c3ccccc23)CO1`: the melting point was in the range of 276 to 278 °C.

For the molecule `COc1ccc(-n2nc(C(C)C)cc2-c2ccc(OCCNC(N)=O)cc2)cn1`, the melting point lay in the range of 106 to 107 °C.

The values are drawn from a melting point compilation (Tetko et al.; mined from patent text by program, amines drawn as free bases though some values may be those of a salt).
